{"source": "patent US8679103B2", "about": "“Two step mammalian biofilm treatment processes and systems” (priority 2008, dated 2014)", "origin": "cited, not measured here", "system": "S. aureus Xen 31", "conditions": "stated as established"}
{"smiles": "O=C(O)c1cn(C2CC2)c2cc(N3CCNCC3)c(F)cc2c1=O", "note": "[ciprofloxacin]", "values": [{"measurement": "minimum inhibitory concentration", "result": 3, "unit": "µg/mL"}]}
